Measured values published in US20110098180A1, “Herbicide-Resistant Plants, And Polynucleotides And Methods For Providing Same” (United States Department of Agriculture, priority 2002, published 2011).

Experiments:
[1] = molecular target: T1, maize PDS Arg→His at position 292 (Zea mays, UniProt P49086, R292H); test: Mutant maize PDS enzyme resistance test; format: biochemical
T1 construct: vector-encoded N-terminal residues of pBluescript SK+ (in-frame fusion); made in house; host or cells: E. coli TOP10 (clone pMPDS3-33 from E. T. Wurtzel, mutagenised in house)
Excerpt: The same mutagenesis procedure as described in the Examples above was used to convert the same key arginine amino acid (position 292, sequence ID No. 6) to histidine in corn PDS. Mutagenesis primers are listed below. A maize cDNA clone of PDS, that actively expressed PDS (basically sequence U37285 ligated in frame into pBluescript SK^+ and cloned in TOP10-cells) was provided by Eleanore T. Wurtzel, N Y (pMPDS3-33 as described in Z H Li, P D Matthews, B Burr & E T Wurtzel: Cloning and characterization of a maize cDNA encoding phytoene desaturase, an enzyme of the carotenoid biosynthetic pathway. Plant Molecular Biology 30: 269-279, 1996).
The resulting mutant maize PDS polynucleotide and protein were tested generally as described in Example 5 above. The mutant maize PDS enzyme ehxibited 50-fold to 60-fold resistance factor as compared to the wild type maize PDS enzyme.

[2] = test system: Hydrilla PDS Leu^542 → Arg; test: Fluridone enzyme inhibition assay, other substitutions (Table 3); format: biochemical, Hydrilla verticillata
Experimental: (§1) To explore whether mutations at positions other than 304 of the hydrilla PDS enzyme and corresponding positions of other plant PDS enzymes also confer herbicide resistance, mutations discovered in Synechococcus strain PCC7942 (Leu^320→Pro; Val^403→Gly; Leu^436→Arg) were introduced into the hydrilla PDS sequence at the corresponding locations, and the resulting PDS enzymes tested for resistance.
(§2) Phytoene desaturase activity and its inhibition by herbicides was determined using an in vitro system using components derived from the in vivo production of phytoene and phytoene desaturase proteins. All mutations described in Examples 3 and 4 were tested. […] The clones were used for the heterologous expression of Hydrilla-PDS-enzyme. In particular, bacterial cultures were grown from single colonies overnight in Wu-broth (6.27 g/L K2HPO4, 1.8 g/L KH2PO4, 0.5 g/L Na-citrate, 0.9 g/L (NH4)2SO4, 10 g/L tryptone, 5 g/L yeast extract, 10 g/L NaCl, 44 ml/L glycerol, 0.1 mM MgSO4, pH 7.2) with kanamycin. 1-mL was aliquoted in centrifuge tube and stored at −80° C. For expression, 1 L LB-medium with kanamycin was inoculated with 1-mL Wu-culture and grown for 24 h at 37° C. to stationary phase with shaking at 200 rpm. The cells were collected by centrifugation at 2000×g. All of the following steps were done at 4° C. unless otherwise noted. Active soluble PDS enzyme was extracted by lysing the transformed E. coli cells using a French Press at 20,000 psi in assay buffer consisting of 100 mM Tris-HCl, pH 7.2, 10 mM magnesium-chloride, 0.1 mM NADP, 0.1 mM FAD, 10 mM cysteine, 5 mM DTT, 1 mM aminocaproic acid, and 1 μg/ml leupeptin. The soluble fraction containing PDS activity was obtained by centrifugation for 10 min at 1200×g. After 24 h they were centrifuged down and used in PDS enzyme activity assays as described below.
(§3) Generally, PDS protein fractions prepared as described above (Non-His-tagged and His-tagged) were mixed with a soluble fraction from phytoene-producing E. coli cells. […]

[3] = test system: Hydrilla PDS Val^509 → Gly; test: as above; format: biochemical, Hydrilla verticillata
Experimental: as §1, §2, §3

[4] = test system: Hydrilla PDS Leu^425 → Pro; test: as above; format: biochemical, Hydrilla verticillata
Experimental: as §1, §2, §3

[5] = test system: Synechocystis PDS with mutation corresponding to Leu^542→Arg; settings: prior work; cited from earlier work

T1 sequence (P49086 97-571 R292H): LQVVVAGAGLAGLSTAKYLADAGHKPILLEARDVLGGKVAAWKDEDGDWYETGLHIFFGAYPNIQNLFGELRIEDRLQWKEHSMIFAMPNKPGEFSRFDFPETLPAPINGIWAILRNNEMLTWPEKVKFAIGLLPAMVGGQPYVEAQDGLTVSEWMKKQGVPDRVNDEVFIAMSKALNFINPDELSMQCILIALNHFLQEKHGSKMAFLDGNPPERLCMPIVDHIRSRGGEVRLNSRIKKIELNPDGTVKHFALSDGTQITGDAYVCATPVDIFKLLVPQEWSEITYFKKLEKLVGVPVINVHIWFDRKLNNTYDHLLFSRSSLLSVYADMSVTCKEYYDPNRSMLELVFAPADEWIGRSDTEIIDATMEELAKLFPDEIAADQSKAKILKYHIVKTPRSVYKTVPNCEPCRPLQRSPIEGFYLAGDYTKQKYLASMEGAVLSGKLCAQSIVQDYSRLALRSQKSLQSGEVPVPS

Fluridone
resistance of modified maize PDS enzyme vs wild-type maize PDS enzyme [1]: substantially more resistant | R/S [2]: 4.5 | R/S [3]: 14.5 | R/S [4]: 1.6 | resistance provided by the mutation [5]: failed to provide resistance
